Peptide text beside a SMILES is read from it.
Experiment: Body weight and normal-side kidney weight of tumor-bearing nude mice (toxic side effects)
Conditions: for Body weight of tumor-bearing nude mice: mean ± SEM; for Body weight, End / Relative body weight, End / Kidney weight on normal side / Body weight, Start / Relative body weight, Start: mean±SEM; for Renal weight/body mass index on normal side / Kidney weight on normal side: left kidney, end of experiment
From the text: Three days after the surgical modeling, the tumor-bearing mice were imaged with IVIS Spectrum CT in vivo, and the tumor-bearing mice were randomized over groups of 10 mice according to the luminescence intensity in the software analysis results.
Animals were observed daily and weighed every other day. Luminescence was detected with four times of in vivo imaging at day 1 (i.e., 3 days after surgical modeling), day 6, day 12 and day 15 from the experimental grouping. The time of in vivo imaging for luminescence detection was adjusted according to the survival and physical condition of the animals. At the end of the experiment (day 16) the animals were executed by neck dislocation, the kidney tissue and tumor masses was isolated for weighing and photographing, and the tumor masses were preserved in 4% formaldehyde solution for routine pathological testing.
The statistical analysis between groups was one-way ANOVA and Tukey’s test for pairwise comparison, and the statistical analysis between groups at different time points was two-way ANOVA and Bonferroni test for pairwise comparison.

SMILES: CSCC[C@H](NC(=O)CNC(=O)CNC(=O)[C@H](CO)NC(=O)[C@H](CC(C)C)NC(=O)[C@@H]1CCCN1C(=O)[C@H](CO)NC(=O)[C@H](CC(N)=O)NC(=O)[C@H](CC(C)C)NC(=O)[C@H](C)NC(=O)[C@@H](NC(=O)[C@H](CC(C)C)NC(=O)[C@H](Cc1c[nH]cn1)NC(=O)[C@H](CC(C)C)NC(=O)[C@@H](NC(=O)[C@@H]1CCCN1C(=O)[C@H](CCC(N)=O)NC(=O)[C@H](Cc1ccccc1)NC(=O)[C@H](CC(=O)O)NC(=O)[C@H](CCCNC(=N)N)NC(=O)[C@H](Cc1c[nH]cn1)NC(=O)[C@H](CO)NC(=O)[C@H](Cc1c[nH]cn1)NC(=O)[C@H](CCSC)NC(=O)[C@H](CC(=O)O)NC(=O)CNC(=O)[C@H](CCCNC(=N)N)NC(=O)[C@H](CC(=O)O)NC(=O)CNC(=O)[C@@H](N)CCCNC(=N)N)C(C)C)C(C)C)C(=O)O [HYD-PEP06] (H-RGDRGDMHSHRDFQPVLHLVALNSPLSGGM-OH)
- Body weight of tumor-bearing nude mice (5 mg/kg i.v. once a day, Day 1): 20.8 ± 0.6 g
- Body weight of tumor-bearing nude mice (5 mg/kg i.v. once a day, Day 4): 21.8 ± 0.6 g
- Body weight of tumor-bearing nude mice (5 mg/kg i.v. once a day, Day 7): 21.2 ± 0.6 g
- Body weight of tumor-bearing nude mice (5 mg/kg i.v. once a day, Day 10): 20.9 ± 0.5 g
- Body weight of tumor-bearing nude mice (5 mg/kg i.v. once a day, Day 13): 21.1 ± 0.4 g
- Body weight of tumor-bearing nude mice (5 mg/kg i.v. once a day, Day 16): 21.0 ± 0.4 g
- Body weight, End (5 mg/kg i.v. x15): 21.0 ± 0.4 g
- Relative body weight, End (5 mg/kg i.v. x15): 101.6 ± 1.9%
- Renal weight/body mass index on normal side (5 mg/kg i.v. x15): 0.85+0.01%
- Kidney weight on normal side (5 mg/kg i.v. x15): 0.178 ± 0.003 g
- Body weight, Start (5 mg/kg i.v. x15): 20.8 ± 0.6 g
- Relative body weight, Start (5 mg/kg i.v. x15): 100.0±0.0%
- Body weight of tumor-bearing nude mice (10 mg/kg i.v. once a day, Day 1): 20.2 ± 0.4 g
- Body weight of tumor-bearing nude mice (10 mg/kg i.v. once a day, Day 4): 21.9 ± 0.3 g
- Body weight of tumor-bearing nude mice (10 mg/kg i.v. once a day, Day 7): 21.1 ± 0.3 g
- Body weight of tumor-bearing nude mice (10 mg/kg i.v. once a day, Day 10): 21.2 ± 0.3 g
- Body weight of tumor-bearing nude mice (10 mg/kg i.v. once a day, Day 13): 21.3 ± 0.2 g
- Body weight of tumor-bearing nude mice (10 mg/kg i.v. once a day, Day 16): 21.0 ± 0.4 g
- Body weight, End (10 mg/kg i.v. x15): 21.0 ± 0.4 g
- Relative body weight, End (10 mg/kg i.v. x15): 104.0±2.2%
- Renal weight/body mass index on normal side (10 mg/kg i.v. x15): 0.85±0.02%
- Kidney weight on normal side (10 mg/kg i.v. x15): 0.178 ± 0.006 g
- Body weight, Start (10 mg/kg i.v. x15): 20.2 ± 0.4 g
- Relative body weight, Start (10 mg/kg i.v. x15): 100.0±0.0%
- Body weight of tumor-bearing nude mice (20 mg/kg i.v. once a day, Day 1): 20.3 ± 0.4 g
- Body weight of tumor-bearing nude mice (20 mg/kg i.v. once a day, Day 4): 21.6 ± 0.4 g
- Body weight of tumor-bearing nude mice (20 mg/kg i.v. once a day, Day 7): 20.9 ± 0.5 g
- Body weight of tumor-bearing nude mice (20 mg/kg i.v. once a day, Day 10): 20.9 ± 0.5 g
- Body weight of tumor-bearing nude mice (20 mg/kg i.v. once a day, Day 13): 21.3 ± 0.6 g
- Body weight of tumor-bearing nude mice (20 mg/kg i.v. once a day, Day 16): 21.3 ± 0.6 g
- Body weight, End (20 mg/kg i.v. x15): 21.3 ± 0.6 g
- Relative body weight, End (20 mg/kg i.v. x15): 104.9±3.3%
- Renal weight/body mass index on normal side (20 mg/kg i.v. x15): 0.86+0.01%
- Kidney weight on normal side (20 mg/kg i.v. x15): 0.182 ± 0.005 g
- Body weight, Start (20 mg/kg i.v. x15): 20.3 ± 0.4 g
- Relative body weight, Start (20 mg/kg i.v. x15): 100.0±0.0%
- Kidney weight, kidney weight/body mass index in the normal side (left side) and body weight vs model control group (5, 10, 20 mg/kg i.v. x15): No significant differences
- Toxic side effects (at the effective dose (5-20 mg/kg i.v. x15)): did not show significant toxic side effects
